From US11267800B2, “Cyclohexyl acid triazole azines as LPA antagonists” (BRISTOL-MYERS SQUIBB COMPANY, priority 2017, dated 2022)

biological target: T1, human LPA1 (Homo sapiens, UniProt Q92633); test: LPA1 functional antagonist assay (calcium flux); assay type: cell-based; details: CHO cells overexpressing human LPA1; inhibition of calcium flux induced by 10 nM LPA; read-out: hLPA1 IC50
T1 construct: expressed in transfected cells; host or cells: Chinese hamster ovary (CHO) cells
Method: The effectiveness of compounds of the present invention as LPA1 inhibitors can be determined in an LPA1 functional antagonist assay as follows:
Chinese hamster ovary cells overexpressing human LPA1 were plated overnight (15,000 cells/well) in poly-D-lysine coated 384-well microplates (Greiner bio-one, Cat #781946) in DMEM/F12 medium (Gibco, Cat #11039). Following overnight culture, cells were loaded with calcium indicator dye (AAT Bioquest Inc, Cat #34601) for 30 minutes at 37° C. The cells were then equilibrated to room temperature for 30 minutes before the assay. Test compounds solubilized in DMSO were transferred to 384 well non-binding surface plates (Corning, Cat #3575) using the Labcyte Echo acoustic dispense and diluted with assay buffer [1×HBSS with calcium/magnesium (Gibco Cat #14025-092), 20 mM HEPES (Gibco Cat #15630-080) and 0.1% fatty acid free BSA (Sigma Cat #A9205)] to a final concentration of 0.5% DMSO. Diluted compounds were added to the cells by FDSS6000 (Hamamatsu) at final concentrations ranging from 0.08 nM to 5 μM. and were then incubated for 20 min at room temperature at which time LPA (Avanti Polar Lipids Cat #857130C) was added at final concentrations of 10 nM to stimulate the cells. The compound IC50 value was defined as the concentration of test compound which inhibited 50% of the calcium flux induced by LPA alone. IC50 values were determined by fitting data to a 4-parameter logistic equation (GraphPad Prism, San Diego Calif.).

T1 sequence (Q92633 whole entry): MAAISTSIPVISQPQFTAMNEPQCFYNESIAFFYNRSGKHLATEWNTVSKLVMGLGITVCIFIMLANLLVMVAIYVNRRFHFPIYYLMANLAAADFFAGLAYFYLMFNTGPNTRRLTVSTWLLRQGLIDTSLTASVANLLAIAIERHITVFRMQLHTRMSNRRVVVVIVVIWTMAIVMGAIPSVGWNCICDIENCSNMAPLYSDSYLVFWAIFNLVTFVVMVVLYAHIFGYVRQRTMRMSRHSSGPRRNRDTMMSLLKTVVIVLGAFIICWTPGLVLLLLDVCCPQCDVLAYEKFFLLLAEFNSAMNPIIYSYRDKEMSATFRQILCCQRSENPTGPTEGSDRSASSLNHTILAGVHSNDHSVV

Structure (SMILES)	IC50
CCC(C)c1ncnc(NCc2c(-c3ccc(O[C@H]4CCC[C@H](C(=O)O)C4)c(C)n3)nnn2C)n1 (mixture of isomers) [Example 197, (1S,3S)-3-((6-(5-(((4-(sec-Butyl)-1,3,5-triazin-2-yl)amino)methyl)-1-methyl-1H-1,2,3-triazol-4-yl)-2-methylpyridin-3-yl)oxy)cyclohexane-1-carboxylic acid]	94 nM
CCC(C)c1nc(O)nc(NCc2c(-c3ccc(O[C@H]4CCC[C@H](C(=O)O)C4)c(C)n3)nnn2C)n1 (mixture of isomers) [Example 198, (1S,3S)-3-((6-(5-(((4-(sec-Butyl)-6-hydroxy-1,3,5-triazin-2-yl)amino)methyl)-1-methyl-1H-1,2,3-triazol-4-yl)-2-methylpyridin-3-yl)oxy) cyclohexane-1-carboxylic acid]	130 nM
Cc1nc(-c2nnn(C)c2COc2nccc(OC3CC3)n2)ccc1O[C@H]1CCCC(C(=O)O)C1 (mixture of isomers) [Example 251, (3S)-3-((6-(5-(((4-cyclopropoxypyrimidin-2-yl)oxy)methyl)-1-methyl-1H-1,2,3-triazol-4-yl)-2-methylpyridin-3-yl)oxy)cyclohexane-1-carboxylic acid]	41 nM
Cc1nc(-c2nnn(C)c2COc2nccc(OC(C)C)n2)ccc1O[C@H]1CCC[C@@H](C(=O)O)C1 (single isomer, unassigned) [Example 249]	67 nM
Cc1nc(-c2nnn(C)c2COc2nccc(OC(C)C)n2)ccc1O[C@H]1CCC[C@H](C(=O)O)C1 (single isomer, unassigned) [Example 250]	41 nM
Cc1nc(-c2nnn(C)c2CNc2cc(-c3ccccc3)ccn2)ccc1O[C@H]1CCC[C@H](C(=O)O)C1 (stereo in doubt) [Example 2, (1S,3S)-3-((2-Methyl-6-(1-methyl-5-(((4-phenylpyridin-2-yl)amino)methyl)-1H-1,2,3-triazol-4-yl)pyridin-3-yl)oxy)cyclohexanecarboxylic acid]	32 nM
Cc1nc(-c2nnn(C)c2CNc2nccc(C(C)(C)C)n2)ccc1O[C@H]1CCC[C@H](C(=O)O)C1 [Example 1, (1S,3S)-3-((6-(5-(((4-(tert-Butyl)pyrimidin-2-yl)amino)methyl)-1-methyl-1H-1,2,3-triazol-4-yl)-2-methylpyridin-3-yl)oxy)cyclohexanecarboxylic acid]	26 nM
Cc1nc(-c2nnn(C)c2CNc2ncnc(-c3ccccc3)n2)ccc1O[C@H]1CCC[C@H](C(=O)O)C1 [Example 3, (1S,3S)-3-((2-Methyl-6-(1-methyl-5-(((4-phenyl-1,3,5-triazin-2-yl)amino)methyl)-1H-1,2,3-triazol-4-yl)pyridin-3-yl)oxy)cyclohexanecarboxylic acid]	120 nM
COc1nc(NCc2c(-c3ccc(O[C@H]4CCC[C@H](C(=O)O)C4)c(C)n3)nnn2C)nc(-c2ccccc2)n1 [Example 4, (1S,3S)-3-((6-(5-(((4-Methoxy-6-phenyl-1,3,5-triazin-2-yl)amino)methyl)-1-methyl-1H-1,2,3-triazol-4-yl)-2-methylpyridin-3-yl)oxy)cyclohexanecarboxylic acid]	153 nM
Cn1nnc(-c2cnc(O[C@H]3CCC[C@H](C(=O)O)C3)cn2)c1CNc1nccc(C(C)(C)C)n1 [Example 5, (1S,3S)-3-((5-(5-(((4-(tert-butyl)pyrimidin-2-yl)amino)methyl)-1-methyl-1H-1,2,3-triazol-4-yl)pyrazin-2-yl)oxy)cyclohexane-1-carboxylic acid]	361 nM
CCCc1ccnc(NCc2c(-c3ccc(O[C@H]4CCC[C@H](C(=O)O)C4)c(C)n3)nnn2C)n1 [Example 7]	8 nM
Cc1nc(-c2nnn(C)c2CNc2nccc(C(C)C)n2)ccc1O[C@H]1CCC[C@H](C(=O)O)C1 [Example 8]	10 nM
Cc1nc(-c2nnn(C)c2CNc2nccc(C3CC3)n2)ccc1O[C@H]1CCC[C@H](C(=O)O)C1 [Example 9]	36 nM
Cc1nc(-c2nnn(C)c2CNc2nccc(C3CCC3)n2)ccc1O[C@H]1CCC[C@H](C(=O)O)C1 [Example 10]	11 nM
Cc1nc(-c2nnn(C)c2CNc2nccc(Cc3ccccc3)n2)ccc1O[C@H]1CCC[C@H](C(=O)O)C1 [Example 11]	103 nM
COc1ccnc(NCc2c(-c3ccc(O[C@H]4CCC[C@H](C(=O)O)C4)c(C)n3)nnn2C)n1 [Example 12]	56 nM
CCOc1ccnc(NCc2c(-c3ccc(O[C@H]4CCC[C@H](C(=O)O)C4)c(C)n3)nnn2C)n1 [Example 13]	19 nM
Cc1nc(-c2nnn(C)c2CNc2nccc(OC(C)C)n2)ccc1O[C@H]1CCC[C@H](C(=O)O)C1 [Example 14]	46 nM
Cc1nc(-c2nnn(C)c2CNc2nccc(Oc3ccccc3)n2)ccc1O[C@H]1CCC[C@H](C(=O)O)C1 [Example 15]	8 nM

Structure (SMILES)	IC50
Cc1cc(OC(C)C)nc(NCc2c(-c3ccc(O[C@H]4CCC[C@H](C(=O)O)C4)c(C)n3)nnn2C)n1 [Example 16]	29 nM
Cc1nc(-c2nnn(C)c2CNc2nccc(N3CCCC3)n2)ccc1O[C@H]1CCC[C@H](C(=O)O)C1 [Example 17]	206 nM
Cc1nc(-c2nnn(C)c2CNc2nccc(C(F)(F)F)n2)ccc1O[C@H]1CCC[C@H](C(=O)O)C1 [Example 18]	66 nM
Cc1cnc(NCc2c(-c3ccc(O[C@H]4CCC[C@H](C(=O)O)C4)c(C)n3)nnn2C)nc1-c1ccccc1 [Example 19]	8 nM
Cc1nc(-c2nnn(C)c2CNc2nccc(-c3ccccc3F)n2)ccc1O[C@H]1CCC[C@H](C(=O)O)C1 [Example 20]	16 nM
Cc1nc(-c2nnn(C)c2CNc2nccc(-c3ccccn3)n2)ccc1O[C@H]1CCC[C@H](C(=O)O)C1 [Example 21]	101 nM
COc1ccccc1-c1ccnc(NCc2c(-c3ccc(O[C@H]4CCC[C@H](C(=O)O)C4)c(C)n3)nnn2C)n1 [Example 22]	219 nM
Cc1nc(-c2nnn(C)c2CNc2cc(C(C)(C)C)ncn2)ccc1O[C@H]1CCC[C@H](C(=O)O)C1 [Example 23]	1050 nM
COc1cc(NCc2c(-c3ccc(O[C@H]4CCC[C@H](C(=O)O)C4)c(C)n3)nnn2C)ncn1 [Example 24]	218 nM
Cc1nc(-c2nnn(C)c2CNc2ccnc(OC(C)C)n2)ccc1O[C@H]1CCC[C@H](C(=O)O)C1 [Example 25]	145 nM
Cn1nnc(-c2ccc(O[C@H]3CCC[C@H](C(=O)O)C3)cn2)c1CNc1nccc(-c2ccccc2)n1 [Example 26]	8 nM
Cn1nnc(-c2cnc(O[C@H]3CCC[C@H](C(=O)O)C3)cn2)c1CNc1nccc(-c2ccccc2)n1 [Example 27]	26 nM
Cn1nnc(-c2ccc(O[C@H]3CCC[C@H](C(=O)O)C3)cn2)c1CNc1nccc(-c2ccccc2F)n1 [Example 28]	19 nM
Cn1nnc(-c2ccc(O[C@H]3CCC[C@H](C(=O)O)C3)cn2)c1CNc1nccc(-c2ccccn2)n1 [Example 29]	39 nM
Cc1cnc(NCc2c(-c3ccc(O[C@H]4CCC[C@H](C(=O)O)C4)cn3)nnn2C)nc1-c1ccccn1 [Example 30]	300 nM
Cn1nnc(-c2ccc(O[C@H]3CCC[C@H](C(=O)O)C3)cn2)c1CNc1nccc(Oc2ccccc2)n1 [Example 31]	178 nM
Cn1nnc(-c2ccc(O[C@H]3CCC[C@H](C(=O)O)C3)cn2)c1CNc1nccc(-c2cccnc2)n1 [Example 32]	277 nM
Cn1nnc(-c2ccc(O[C@H]3CCC[C@H](C(=O)O)C3)cn2)c1CNc1nccc(-n2cccn2)n1 [Example 34]	1130 nM
